# Laboratory results taken from patent US11242555B2, “Molecular sensors and uses thereof” (New York University, priority 2018, dated 2022).
# Entries after “also recorded” stand apart in the source; their conditions may differ. Starred links: 1 amine or outer side, 2 acyl side, 3 side chain; linkers in the order of their positions; H or OH if unused. Positions of bridges follow the written chain, without caps; N, C: chain ends. Non-standard residues stand in square brackets, D forms with d. Residues, ends and D or L forms follow the SMILES beside them. Chains are numbered I, II in the order given. Actinocin(9to1) = Cc1c2oc3c(C)ccc(C(=O)[*:1])c3nc-2c(C(=O)[*:2])c(N)c1=O; NMeV = CN[C@H](C(=O)O)C(C)C; Sar = CNCC(=O)O
# What was measured:
# [1] = system: double-stranded oligo probe (DNA); experiment: High-throughput screen of a compound library with the linear oligo probe (FRET ratio, 384 well plate); assay type: binding
# Protocol: A library of compounds was mixed with the oligo probe in 384 well plate format. (A) The fluorescence spectra of the probe were recorded on a plate reader as in FIG. 21 and the FRET ratio (Cy5/Cy3 intensity) was calculated. […] (B) A library consisting of 1600 compounds from FDA and internationally approved drugs was screened to detect potential intercalators that can be drug repositioning targets.
# The molecular sensors were used in vitro according to the following: 1) The sensors were diluted in a NaCl solution (e.g., in a 50-100 mM NaCl solution) and 0.2% BSA solution to a concentration of 1 μM. This can be adjusted depending on the sensitivity of the fluorescence measurement device. 2) The fluorescence spectrum was measured using a fluorescence spectrophotometer, a plate reader, or any other ad-hoc means. […] 3) The molecular species was added to be characterized for DNA binding properties or to be tested for intercalating or groove binding ability. The appropriate sensor is used (e.g., a linear or flexible molecular sensor). The fluorescence spectrum was measured again using the same methods and settings. 4) The FRET ratio was compared for both the sensor alone and sensor plus tested molecule. The FRET ratio is calculated by dividing the peak intensity of the acceptor fluorescence by that of the donor fluorescence.
# [2] = system: double-stranded oligo probe (DNA); experiment: Linear oligo probe titration with intercalating drug in solution (FRET ratio, Hill plot binding constant); settings: for binding constant: Hill plot fit of fraction of intercalated bases vs drug concentration, all binding sites assumed occupied at saturation
# DNA within living cells = experiment: Linear probe in living cells transfected with the oligo probe (confocal FRET ratio); assay type: cell-based; settings: for FRET ratio (Cy5:Cy3) in cells in presence of intercalating drug vs no drug: cells transfected with linear probe, drug in culture medium
# Protocol: Cells transfected with the oligo probe were imaged by exciting the donor (Cy3) and imaging the fluorescence of Cy3 (A) and Cy5 (acceptor) (B) in the appropriate spectral ranges using a confocal microscope. (C) The false-colored images can be merged, therefore producing a false color image where orange indicates a large FRET ratio. […] (G) The drop in the FRET ratio is measured by calculating the ratio of the Cy5 signal to that of Cy3 within the nuclei of cells in presence of the three intercalating compounds.
# The molecular sensors were used in cell culture according to the following: 1) the desired cells were prepared in glass-bottom culture dishes or wells to a confluence lower than 70%. 2) Two hours before imaging, a desired transfection protocol (e.g., liposome transfection), and the like) is used with either sensor depending on the desired mode of DNA binding to be investigated. 3) After the transfection period, the culture was washed from excess sensors. 4) The culture disk was transferred to the confocal microscope for imaging. […] 6) If using filter cubes use the appropriate cubes to image donor fluorescence in one channel and acceptor fluorescence in the other. If using spectral imaging set the imaging wavelength windows for the two fluorophores. 7) Cells were identified that have been successfully transfected as indicated by fluorescence throughout the cell. 8) Images were acquired in both channels. 9) Software to calculate the ratio of acceptor/donor fluorescence (the FRET ratio) for the desired regions within the imaged cells was used. 10) The desired drug to be tested was added. 11) The cells were imaged again and the FRET ratio was calculated as a function of the desired variable: e.g. time, drug concentration, region within the cell, etc. A change in the FRET ratio indicates DNA drug binding.
# Using laser scanning confocal microscopy the cells are imaged by exciting the donor (Cy3) and imaging the fluorescence of Cy3 and Cy5 (acceptor) in the appropriate spectral ranges (images A, B, D, E). The false-colored images can be merged therefore producing a false color image where green indicates a small FRET ratio and red a large FRET ratio and intermediate values being yellow/orange (images C and F). […] The FRET ratio can be measured from the ratio of Cy5:Cy3 intensities.
# Cells were transfected with the sensor and imaged in culture medium as described in FIG. 17. […] The average FRET ratio measured as Cy5:Cy3 intensities in the images is plotted as a function of time in the lower right panel.
# [3] = system: nuclei of cells in culture; experiment: Flexible sensor FRET ratio within nuclei of cells treated with chromatin-disrupting drugs (macromolecular crowding); assay type: cell-based; settings: flexible sensor within nuclei of cells in culture medium
# Protocol: The flexible molecular sensors reports on the local macromolecular crowding within living cells in culture (FIG. 5). The sensor was introduced into cells by liposome transfection. After a short incubation period of 45 minutes, the cells plated on an imaging well were washed and imaged using scanning laser confocal microscopy. The cells were then imaged by exciting the donor (Cy3) and imaging the fluorescence of Cy3 and Cy5 (acceptor) in the appropriate spectral ranges (top two images). The false-colored images can be merged therefore producing another false color image where green (FIG. 5—top left) indicates a small FRET ratio and red (FIG. 5—top right) a large FRET ratio an intermediate values being yellow/orange (FIG. 5—bottom left). A quantitative measurement of the FRET ratio is represented as a gray scale image (FIG. 5—bottom right) where each pixel is in the ratio of the intensity in the Cy5 channel divided by that in the Cy3 channel. Local variations indicate local differences in the degree of macromolecular crowding.
# Drugs that disrupt chromatin compaction result in a more crowded nucleus (FIG. 11). The FRET ratio was measured within the nuclei of cells in culture medium in the absence and presence of drugs that disrupt chromatin structure. Three drugs that disrupt chromatin in different ways were used: trichostatin A (TSA) and tubacin both of which inhibit histone deacetylases, and etoposide which forms a complex with DNA and topisomerase II resulting in the accumulation of DNA breaks.
SMILES,binding constant [2] [M⁻¹],FRET ratio (Cy5:Cy3) in cells in presence of intercalating drug vs no drug (DNA within living cells),FRET ratio in nuclei of treated cells compared to untreated cells [3],also measured
"Cc1c2oc3c(C)ccc(C(=O)N[C@@H]4C(=O)N[C@H](C(C)C)C(=O)N5CCC[C@H]5C(=O)N(C)CC(=O)N(C)[C@@H](C(C)C)C(=O)O[C@@H]4C)c3nc-2c(C(=O)N[C@@H]2C(=O)N[C@H](C(C)C)C(=O)N3CCC[C@H]3C(=O)N(C)CC(=O)N(C)[C@@H](C(C)C)C(=O)O[C@@H]2C)c(N)c1=O [DACTINOMYCIN] (I: T[dV]P[Sar][NMeV] / II: T[dV]P[Sar][NMeV]; ester I:1-I:C, II:1-II:C; linker I:N-II:N via Actinocin(9to1))",2e+06,drop if the FRET efficiency upon intercalation within the cell,–,"FRET ratio [1]: 0.4765; FRET ratio as a function of intercalator concentration ([2]; linear probe in solution, excited at 500 nm, peak acceptor/peak donor): decreases; FRET ratio (Cy5:Cy3) in cells in presence of intercalating drug vs no drug (DNA within living cells; listed as Actinomycin D): decrease in the FRET ratio; also recorded: clear difference in FRED ratio; time-course of drug entry into the cell (drop in FRET ratio within the nucleus) (DNA within living cells; time-lapse after drug was introduced into the culture medium): from orange (high FRET) to green (low FRET)"
CS[C@H]1SC[C@H]2C(=O)N(C)[C@@H](C(C)C)C(=O)OC[C@@H](NC(=O)c3cnc4ccccc4n3)C(=O)N[C@@H](C)C(=O)N(C)[C@@H]1C(=O)N(C)[C@@H](C(C)C)C(=O)OC[C@@H](NC(=O)c1cnc3ccccc3n1)C(=O)N[C@@H](C)C(=O)N2C [Echinomycin],400000,clear difference in FRED ratio,–,–
c1cnc2c(c1)ccc1cccnc12 [Phenanthroline],710,clear difference in FRED ratio,–,–
COc1cc([C@@H]2c3cc4c(cc3[C@@H](O[C@@H]3O[C@@H]5CO[C@@H](C)O[C@H]5[C@H](O)[C@H]3O)[C@H]3COC(=O)[C@H]23)OCO4)cc(OC)c1O [etoposide],–,–,larger FRET ratio,–
CC(/C=C/C(=O)NO)=C\[C@@H](C)C(=O)c1ccc(N(C)C)cc1 [trichostatin A],–,–,larger FRET ratio,–
O=C(CCCCCCC(=O)Nc1ccc([C@H]2O[C@@H](CSc3nc(-c4ccccc4)c(-c4ccccc4)o3)C[C@@H](c3ccc(CO)cc3)O2)cc1)NO [tubacin],–,–,larger FRET ratio,–
